Source: patent US6603046B1, “Bis-aromatic a,β-unsaturated ketones” (Lica Pharmaceuticals A/S, priority 1992, dated 2003)
Several values for one entry are separate records, joined by “and”; a condition that tells them apart may be missing. Equal entries are not always repeated.

Key:
[1] = system: L. major amastigotes in U937 cells; test: L. major amastigotes in U937 cells, microscopic counting (Example 7); assay type: cell-based, Leishmania major
P. yoelii strain YM = P. yoelii strain YM infection in mice, parasitemia and mortality (Example 16); assay type: in vivo, BALB/c mice; conditions: for % parasitemia, Mean: orally 100 mg/kg/dose 3 and 24 h after infection
[2] = 3 days after infection, 0.5 μg/ml
[3] = 3 days after infection, 1 μg/ml
[4] = 6 days after infection, 0.5 μg/ml
[5] = 6 days after infection, 1 μg/ml
[6] = D + 2, 10 mg per kg twice daily days +1 to +4
[7] = D + 3, 10 mg per kg twice daily days +1 to +4
[8] = D + 4, 10 mg per kg twice daily days +1 to +4
[9] = D + 5, 10 mg per kg twice daily days +1 to +4
[10] = D + 6, 10 mg per kg twice daily days +1 to +4
[11] = D + 7, 10 mg per kg twice daily days +1 to +4
[12] = D + 8, 10 mg per kg twice daily days +1 to +4

C=CC(C)(C)c1cc(/C=C/C(=O)c2ccc(O)cc2)c(OC)cc1O [Licochalcone A, licochalcone A]
% of amast. [1, 2]: 96.6%
% of infec. cells [1, 2]: 28.0%
amast. per cell [1, 2]: 2.3
proma per cell [1, 2]: 0.1
total amast. [1, 2]: 65.0 ×10^6
total proma. [1, 2]: 2.3 ×10^6
% of amast. [1, 3]: 91.2%
% of infec. cells [1, 3]: 19.0%
amast. per cell [1, 3]: 2.0
proma per cell [1, 3]: 0.2
total amast. [1, 3]: 38.3 ×10^6
total proma. [1, 3]: 3.7 ×10^6
% of infec. cells ([1]; 3 days after infection, 5 μg/ml): 0%
% of infec. cells ([1]; 3 days after infection, 10 μg/ml): 0%
% of amast. [1, 4]: 100%
% of infec. cells [1, 4]: 13.7%
amast. per cell [1, 4]: 3.1
proma per cell [1, 4]: 0
total amast. [1, 4]: 42.0 ×10^6
total proma. [1, 4]: 0 ×10^6
% of amast. [1, 5]: 100%
% of infec. cells [1, 5]: 3.0%
amast. per cell [1, 5]: 1.8
proma per cell [1, 5]: 0
total amast. [1, 5]: 5.3 ×10^6
total proma. [1, 5]: 0 ×10^6
% of infec. cells ([1]; 6 days after infection, 5 μg/ml): 0%
% of infec. cells ([1]; 6 days after infection, 10 μg/ml): 0%
Parasitemia, mean (P. yoelii strain YM; [6]): 0.1%
Parasitemia, single mice (P. yoelii strain YM; [6]): 0.1% and 0.01%
Parasitemia, mean (P. yoelii strain YM; [7]): 0.2%
Parasitemia, single mice (P. yoelii strain YM; [7]): 0.00% and 0.5% and 0.01%
Parasitemia, mean (P. yoelii strain YM; [8]): 0.4%
Parasitemia, single mice (P. yoelii strain YM; [8]): 0.00% and 1.2%
Parasitemia, single mice (P. yoelii strain YM; D + 4, 10 mg/kg/day in 2 injections, days +1 to +6, 10 mg/kg/day): 1.5% and 4.0%
Parasitemia, single mice (P. yoelii strain YM; D + 4, 20 mg/kg/day in 2 injections, days +1 to +6, 20 mg/kg/day): 0.01% and 0.0%
Parasitemia, single mice (P. yoelii strain YM; D + 4, 40 mg/kg/day in 2 injections, days +1 to +6, 40 mg/kg/day): 0.1% and 0.5%
% parasitemia (mean ± SEM) (P. yoelii strain YM; D + 4, i.p. 5 mg/kg/day twice daily, 3 h after infection and D + 1 to D + 3): 1.6 ± 0.6%
% parasitemia (mean ± SEM) (P. yoelii strain YM; D + 4, i.p. 10 mg/kg four times daily D + 4 to D + 7): 14.2 ± 3.8%
% parasitemia (mean ± SEM) (P. yoelii strain YM; D + 4, i.p. 10 mg/kg twice daily D-1, D0): 1.2 ± 1.1%
% parasitemia (mean ± SEM) (P. yoelii strain YM; D + 4, i.p. 10 mg/kg/day twice daily, 3 h after infection and D + 1 to D + 3): 1.1 ± 1.0%
% parasitemia (mean ± SEM) (P. yoelii strain YM; D + 4, i.p. 15 mg/kg/day twice daily, 3 h after infection and D + 1 to D + 3): 2.0 ± 2.0%
% parasitemia, Mean (P. yoelii strain YM; D + 4): 1.0%
Parasitemia, mean (P. yoelii strain YM; [9]): 0.7%
Parasitemia, single mice (P. yoelii strain YM; [9]): 0.1% and 1.5% and 0.00%
Parasitemia, single mice (P. yoelii strain YM; D + 5, 10 mg/kg/day in 2 injections, days +1 to +6, 10 mg/kg/day): 1.5% and 3.0%
Parasitemia, single mice (P. yoelii strain YM; D + 5, 20 mg/kg/day in 2 injections, days +1 to +6): 0.0%
Parasitemia, single mice (P. yoelii strain YM; D + 5, 40 mg/kg/day in 2 injections, days +1 to +6, 40 mg/kg/day): 0.5% and 1.0%
Parasitemia, mean (P. yoelii strain YM; [10]): 2.2%
Parasitemia, single mice (P. yoelii strain YM; [10]): 1.0% and 4.0% and 1.5%
Parasitemia, single mice (P. yoelii strain YM; D + 6, 10 mg/kg/day in 2 injections, days +1 to +6, 10 mg/kg/day): 2.0% and 2.5%
% parasitemia (mean ± SEM) (P. yoelii strain YM; D + 6, 10 mg/kg/day twice daily, 3 h after infection, D + 1 to D + 5): 0.1 ± 0.1%
% parasitemia (mean ± SEM) (P. yoelii strain YM; D + 6, 15 mg/kg/day twice daily, 3 h after infection, D + 1 to D + 5): 0%
Parasitemia, single mice (P. yoelii strain YM; D + 6, 20 mg/kg/day in 2 injections, days +1 to +6): 0.0%
Parasitemia, single mice (P. yoelii strain YM; D + 6, 40 mg/kg/day in 2 injections, days +1 to +6, 40 mg/kg/day): 1.0% and 1.5%
% parasitemia (mean ± SEM) (P. yoelii strain YM; D + 6, i.p. 5 mg/kg/day twice daily, 3 h after infection and D + 1 to D + 3): 13.8 ± 4.4%
% parasitemia (mean ± SEM) (P. yoelii strain YM; D + 6, i.p. 10 mg/kg four times daily D + 4 to D + 7): 6.6 ± 1.5%
% parasitemia (mean ± SEM) (P. yoelii strain YM; D + 6, i.p. 10 mg/kg twice daily D-1, D0): 9.7 ± 0.7%
% parasitemia (mean ± SEM) (P. yoelii strain YM; D + 6, i.p. 10 mg/kg/day twice daily, 3 h after infection and D + 1 to D + 3): 14.2 ± 4.6%
% parasitemia (mean ± SEM) (P. yoelii strain YM; D + 6, i.p. 15 mg/kg/day twice daily, 3 h after infection and D + 1 to D + 3): 10.4 ± 7.4%
Parasitemia, mean (P. yoelii strain YM; [11]): 3.0%
Parasitemia, single mice (P. yoelii strain YM; [11]): 2.0% and 4.0% and 3.0%
Parasitemia, single mice (P. yoelii strain YM; D + 7, 10 mg/kg/day in 2 injections, days +1 to +6, 10 mg/kg/day): 8.0% and 10.0%
Parasitemia, single mice (P. yoelii strain YM; D + 7, 20 mg/kg/day in 2 injections, days +1 to +6, 20 mg/kg/day): 0.01% and 0.05%
Parasitemia, single mice (P. yoelii strain YM; D + 7, 40 mg/kg/day in 2 injections, days +1 to +6, 40 mg/kg/day): 4.5% and 5.8%
% parasitemia, Mean (P. yoelii strain YM; D + 7): 9.7%
Parasitemia, mean (P. yoelii strain YM; [12]): 6.7%
Parasitemia, single mice (P. yoelii strain YM; [12]): 4.0% and 8.0%
Parasitemia, single mice (P. yoelii strain YM; D + 8, 10 mg/kg/day in 2 injections, days +1 to +6, 10 mg/kg/day): 18.0% and 20.0%
% parasitemia (mean ± SEM) (P. yoelii strain YM; D + 8, 10 mg/kg/day twice daily, 3 h after infection, D + 1 to D + 5): 0.7 ± 0.4%
% parasitemia (mean ± SEM) (P. yoelii strain YM; D + 8, 15 mg/kg/day twice daily, 3 h after infection, D + 1 to D + 5): 0%
Parasitemia, single mice (P. yoelii strain YM; D + 8, 20 mg/kg/day in 2 injections, days +1 to +6, 20 mg/kg/day): 1.0% and 1.5%
Parasitemia, single mice (P. yoelii strain YM; D + 8, 40 mg/kg/day in 2 injections, days +1 to +6, 40 mg/kg/day): 12.0% and 15.0%
